From US9504747B2, “Lipids and lipid compositions for the delivery of active agents” (Novartis AG, priority 2013, dated 2016)

Assays:
[1] = pKa measurement of the cationic lipid (TNS fluorescence vs pH); format: physicochemical; details: probe TNS (fluorescent probe), pKa of the cationic lipid of formula (I)
How it was run: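 Lipid (2 mM ethanol stock) mixed with TNS probe (0.3 mM stock) and diluted into twelve sodium phosphate/citric acid buffers of varying pH. TNS fluorescence read after background subtraction and normalized to the lowest-pH value. pKa taken as the pH at half-maximal normalized fluorescence on the smoothed curve, precise to about 0.1 units.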

[2] = Particle size of the lipid nanoparticle (dynamic light scattering, Malvern Zetasizer); format: physicochemical; details: Z-average
From the text: The lipid nanoparticles have a size of about 1 to about 2,500 nm, about 1 to about 1,500 nm, about 1 to about 1,000 nm, in a sub-embodiment about 50 to about 600 nm, in a sub-embodiment about 50 to about 400 nm, in a sub-embodiment about 50 to about 250 nm, and in a sub-embodiment about 50 to about 150 nm. Unless indicated otherwise, all sizes referred to herein are the average sizes (diameters) of the fully formed nanoparticle, as measured by dynamic light scattering on a Malvern Zetasizer. The nanoparticle sample is diluted in phosphate buffered saline (PBS) so that the count rate is approximately 200-400 kcts. The data is presented as a weighted average of the intensity measure. The lipid nanoparticles (LNPs) were formed by mixing equal volumes of lipids dissolved in alcohol with siRNA dissolved in a citrate buffer by an impinging jet process. […] The siRNA to total lipid ratio is approximately 0.05 (wt/wt). Where a LNP formulation contains four lipid components, the molar ratios correspond to the type of lipid as it appears in the first four columns of the table, in the order that they appear. The ratio of the lipids ranges from 20 to 70 mole percent for the cationic lipid with a target of 40-60, the mole percent of helper lipid ranges from 20 to 70 with a target of 30 to 50, the mole percent of neutral lipid ranges from 0-30, the mole percent of PEG lipid has a range from 1 to 6 with a target of 2 to 5. The concentration of siRNA solution ranges from 0.7 to 1.0 mg/mL with a target of 0.8 to 0.9 mg/mL in a sodium citrate: sodium chloride buffer pH 4-6, with a target of 4.5-5.5. The LNPs are formed by mixing equal volumes of lipid solution in ethanol with siRNA dissolved in a citrate buffer by an impinging jet process through a mixing device with ID ranging from 0.25 to 2.0 mm at a flow rate from 10 to 640 mL/min. The mixed LNP solution is held at room temperature for 0-24 hrs prior to a dilution step. […] The final product is sterile filtered and stored at 4° C. Unless indicated otherwise, all particle size measurements referred to in Tables 4 and 5 are the Z-average particle size of the fully formed nanoparticle, as measured by dynamic light scattering on a Malvern Zetasizer. The nanoparticle sample was diluted in phosphate buffered saline (PBS) so that the count rate is approximately 200-400 kcts.

[3] = Polydispersity index (PDI) of the lipid nanoparticle (dynamic light scattering); format: physicochemical
How it was run: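 LNPs made by impinging-jet mixing of lipids in ethanol with siRNA in citrate buffer, pH 4-6, siRNA:total lipid ~0.05 wt/wt; sterile filtered, stored at 4° C. Samples diluted in PBS to ~200-400 kcts count rate before dynamic light scattering. PDI reported as intensity-weighted average of fully formed particles.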

PLK-1 mRNA = test: LS411N Xenograft Assay with PLK1-424 siRNA lipid nanoparticles; format: in vivo, Female Nu/Nu mice; details: percent knock down of PLK-1 mRNA in tumor vs control, 3 mg/kg IV daily for three days, 24 h post last injection
Experimental: Female Nu/Nu mice (6-8 weeks old) were implanted subcutaneously with 5×10^6 LS411N cells. Tumor growth was monitored by caliper measurement before treatment initiation. Mice bearing 150-250 mm^3 subcutaneous tumors were randomized and enrolled in the study. The stock siRNA formulations were diluted to […] with PBS for dosing. Animals enrolled in different groups received a single daily bolus IV injection of 3 mg/kg siRNA for three days. Tumors were harvested 24 hours post last injection to assess target gene regulation by qRT-PCR.
Lipid nanoparticles comprising lipid compounds of formula (I) and the PLK1-424 siRNA duplex sequence listed above were tested in the LS411N Xenograft Assay. The results of this assay are given in Table 5 below as a percent knock down of PLK-1 mRNA as compared to the control when administered as a single daily dose for three days at a dose of 3 mg/kg.

[4] = Table 4, FVII siRNA LNP, Chol/DSPC/stealth lipid PEG-DMG, molar ratio 45/44/9/2
[5] = Table 4, FVII siRNA LNP, Chol/DSPC/stealth lipid S010, molar ratio 45/44/9/2
[6] = Table 5, PLK1-424 siRNA LNP, Chol/DSPC/stealth lipid S010, 45/44/9/2
[7] = Table 4, FVII siRNA LNP, Chol/DSPC/stealth lipid PEG-DMG, 45/44/9/2
[8] = Table 4, FVII siRNA LNP, Chol/DSPC/stealth lipid S010, 45/44/9/2
[9] = Table 5, PLK1-424 siRNA LNP, stealth lipid S010, 45/44/9/2
[10] = Table 5, PLK1-424 siRNA LNP, Chol/DSPC/stealth lipid PEG-DSG, 45/44/9/2
[11] = Table 5, PLK1-424 siRNA LNP, stealth lipid PEG-DSG, 45/44/9/2

CCCCCCCC(=O)OCCCCCCCCCCOc1cc(CN(C)C)cc(OCCCCCCCCCCOC(=O)CCCCCCC)c1 [Example 43]
pKa ([1]; Table 4): 5.85
pKa ([1]; Table 5): 5.85
Size (nm) [2, 4]: 157.8 nm
Size (nm) [2, 5]: 121.9 nm
Size (nm) [2, 6]: 150.7 nm
PDI [3, 7]: 0.08
PDI [3, 8]: 0.066
PDI [3, 9]: 0.046
LS411 KD 3 × 3 mg/Kg (PLK-1 mRNA; stealth lipid S010): 40%

CCCCCCCCCC(=O)OCCCCCCCCOc1cc(CN(C)C)cc(OCCCCCCCCOC(=O)CCCCCCCCC)c1 [Example 52]
pKa ([1]; Table 4): 5.96
pKa ([1]; Table 5): 5.96
Size (nm) [2, 4]: 109.4 nm
Size (nm) [2, 5]: 145.4 nm
Size (nm) [2, 10]: 132.2 nm
Size (nm) [2, 6]: 132.2 nm
PDI [3, 7]: 0.1
PDI [3, 8]: 0.052
PDI [3, 11]: 0.06
PDI [3, 9]: 0.06
LS411 KD 3 × 3 mg/Kg (PLK-1 mRNA; stealth lipid PEG-DSG): 69%
LS411 KD 3 × 3 mg/Kg (PLK-1 mRNA; stealth lipid S010): 50%

CCCCC/C=C\C/C=C\CCCCCCCC(=O)OCCCOc1cc(CN(C)C)cc(OCCCOC(=O)CCCCCCC/C=C\C/C=C\CCCCC)c1 [Example 39]
pKa ([1]; Table 4): 5.91
pKa ([1]; Table 5): 5.91
Size (nm) [2, 5]: 122.9 nm
Size (nm) [2, 6]: 114.3 nm
PDI [3, 8]: 0.044
PDI [3, 9]: 0.039
LS411 KD 3 × 3 mg/Kg (PLK-1 mRNA; stealth lipid S010): 55%

CCCCCCCC(=O)OCC(CCOc1cc(CN(C)C)cc(OCCC(COC(=O)CCCCCCC)OC(=O)CCCCCCC)c1)OC(=O)CCCCCCC (stereo not shown) [Example 91]
pKa ([1]; Table 4): 6.01
pKa ([1]; Table 5): 6.01
PDI [3, 7]: 0.06
PDI [3, 8]: 0.053
PDI [3, 9]: 0.032
LS411 KD 3 × 3 mg/Kg (PLK-1 mRNA; stealth lipid S010): 45%

CCCCC/C=C\C/C=C\CCCCCCCC(=O)OCCCCOc1cc(CN(C)C)cc(OCCCCOC(=O)CCCCCCC/C=C\CCCCCCCC)c1 [Example 63]
pKa ([1]; Table 4): 5.92
pKa ([1]; Table 5): 5.9
PDI [3, 8]: 0.057
PDI [3, 11]: 0.047
LS411 KD 3 × 3 mg/Kg (PLK-1 mRNA; stealth lipid PEG-DSG): 66%

CCCCCCCCCCOC(=O)CCCCCCCOc1cc(CN(C)C)cc(OCCCCCCCC(=O)OCCCCCCCCCC)c1 [Example 57]
pKa ([1]; Table 4): 5.94
pKa ([1]; Table 5): 5.94
PDI [3, 7]: 0.03
PDI [3, 8]: 0.059
PDI [3, 9]: 0.038
LS411 KD 3 × 3 mg/Kg (PLK-1 mRNA; stealth lipid S010): 60%

CCCCC/C=C\C/C=C\CCCCCCCC(=O)OCCCCOc1cc(CN(C)C)cc(OCCCCOC(=O)CCCCCCC/C=C\C/C=C\CCCCC)c1 [Example 38]
pKa ([1]; Table 4): 5.93
pKa ([1]; Table 5): 5.93
Size (nm) [2, 4]: 108.0 nm
Size (nm) [2, 5]: 120 nm
Size (nm) [2, 10]: 116.8 nm
Size (nm) [2, 6]: 116.8 nm
PDI [3, 7]: 0.02
PDI [3, 8]: 0.04
PDI [3, 11]: 0.036
PDI [3, 9]: 0.036
LS411 KD 3 × 3 mg/Kg (PLK-1 mRNA; stealth lipid PEG-DSG): 58%
LS411 KD 3 × 3 mg/Kg (PLK-1 mRNA; stealth lipid S010): 60%

CCCCCCCC(=O)OCCCCCCCCOc1cc(CN(C)C)cc(OCCCCCCCCOC(=O)CCCCCCC)c1 [Example 42]
pKa ([1]; Table 4): 5.93
pKa ([1]; Table 5): 5.93
Size (nm) [2, 5]: 120 nm
Size (nm) [2, 6]: 181.1 nm
PDI [3, 8]: 0.084
PDI [3, 9]: 0.06
LS411 KD 3 × 3 mg/Kg (PLK-1 mRNA; stealth lipid S010): 50%
